Reference: ChEMBL document CHEMBL1201862, “PubChem BioAssay data set” (2004)
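Exposure lasted 48 hours, with cells grown in 96-well plates and compounds tested at five concentrations. GI50: concentration for 50% inhibition of growth.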 Active and inactive are the calls of the source. Rule as the data show it: active = GI50 up to about 1.1 µM and inactive = higher.

Experiments:
Experiment in all cases: NCI-60 cell line screen, 48 h
BT-549 = test system: BT-549
COLO 205 = test system: COLO 205
HCT-15 = test system: HCT-15
IGROV-1 = test system: IGROV-1
K562 = test system: K562
KM12 = test system: KM12
M14 = test system: M14
MDA-N = test system: MDA-N
NCI-H522 = test system: NCI-H522
OVCAR-3 = test system: OVCAR-3
OVCAR-5 = test system: OVCAR-5
PC-3 = test system: PC-3
SF-295 = test system: SF-295
SK-MEL-2 = test system: SK-MEL-2
SNB-19 = test system: SNB-19
SR = test system: SR
T47D = test system: T47D
TK-10 = test system: TK-10
UACC-62 = test system: UACC-62

| SMILES | GI50 (BT-549) | GI50 (COLO 205) | GI50 (HCT-15) [µM] | GI50 (IGROV-1) | GI50 (K562) | GI50 (KM12) | GI50 (M14) | GI50 (MDA-N) | GI50 (NCI-H522) | GI50 (OVCAR-3) | GI50 (OVCAR-5) | GI50 (PC-3) | GI50 (SF-295) | GI50 (SK-MEL-2) | GI50 (SNB-19) | GI50 (SR) | GI50 (T47D) | GI50 (TK-10) | GI50 (UACC-62) |
| --- | --- | --- | --- | --- | --- | --- | --- | --- | --- | --- | --- | --- | --- | --- | --- | --- | --- | --- | --- |
| c1ccc([P+](CC[P+](c2ccccc2)(c2ccccc2)c2ccccc2)(c2ccccc2)c2ccccc2)cc1 | 42.3 µM (inactive) | 8.81 µM (inactive) | 29 | 38 µM (inactive) | 2.44 µM (inactive) | 15.2 µM (inactive) | 22.3 µM (inactive) | 14.4 µM (inactive) | 3.1 µM (inactive) | 13 µM (inactive) | 44.4 µM (inactive) | 6.27 µM (inactive) | 33.7 µM (inactive) | 9.38 µM (inactive) | 47.4 µM (inactive) | 14.7 µM (inactive) | 4.34 µM (inactive) | 12.3 µM (inactive) | 25.6 µM (inactive) |
| CCOC(=O)CCc1ccc(NC(=O)/C=C/c2ccc([N+](=O)[O-])o2)cc1 | 2.66 µM (inactive) | 1.52 µM (inactive) | 1.77 | 3.5 µM (inactive) | 0.27 µM (active) | 1.56 µM (inactive) | 0.92 µM (active) | 0.807 µM (active) | 0.287 µM (active) | 0.61 µM (active) | 2.34 µM (inactive) | 3.03 µM (inactive) | 3.48 µM (inactive) | 2.06 µM (inactive) | 9.82 µM (inactive) | 0.155 µM (active) | 3.24 µM (inactive) | 1.48 µM (inactive) | 2.12 µM (inactive) |
| CCCCCCOP(=O)(OCCCCCC)OC(C(=O)OC)C(F)(F)F (centres undefined) | > 100 µM (inactive) | > 100 µM (inactive) | > 100 | > 100 µM (inactive) | > 100 µM (inactive) | > 100 µM (inactive) | > 100 µM (inactive) | > 100 µM (inactive) | > 100 µM (inactive) | > 100 µM (inactive) | > 100 µM (inactive) | > 100 µM (inactive) | > 100 µM (inactive) | > 100 µM (inactive) | > 100 µM (inactive) | > 100 µM (inactive) | > 100 µM (inactive) | > 100 µM (inactive) | > 100 µM (inactive) |
| Cc1nc2ccccc2n1Cc1nnc(N)o1 | > 100 µM (inactive) | > 100 µM (inactive) | > 100 | > 100 µM (inactive) | > 100 µM (inactive) | > 100 µM (inactive) | > 100 µM (inactive) | > 100 µM (inactive) | > 100 µM (inactive) | > 100 µM (inactive) | > 100 µM (inactive) | > 100 µM (inactive) | > 100 µM (inactive) | > 100 µM (inactive) | > 100 µM (inactive) | > 100 µM (inactive) | > 100 µM (inactive) | > 100 µM (inactive) | > 100 µM (inactive) |
| CCN(CCCN(CC)C(=O)Nc1ccccc1)C(=O)Nc1ccccc1 | > 100 µM (inactive) | > 100 µM (inactive) | > 100 | > 100 µM (inactive) | > 100 µM (inactive) | > 100 µM (inactive) | > 100 µM (inactive) | > 100 µM (inactive) | > 100 µM (inactive) | > 100 µM (inactive) | > 100 µM (inactive) | > 100 µM (inactive) | > 100 µM (inactive) | > 100 µM (inactive) | > 100 µM (inactive) | > 100 µM (inactive) | > 100 µM (inactive) | > 100 µM (inactive) | > 100 µM (inactive) |
| CCOC(=O)C1=C(C)N(c2ccc(Cl)cc2)C2(O)C=CC(=O)C3C(=O)N(c4ccccc4)C(=O)C132 (centres undefined) | 2.25 µM (inactive) | 1.67 µM (inactive) | 1.82 | 1.54 µM (inactive) | 3.08 µM (inactive) | 1.69 µM (inactive) | 1.66 µM (inactive) | 2.35 µM (inactive) | 1.1 µM (active) | 1.28 µM (inactive) | 2.01 µM (inactive) | 1.5 µM (inactive) | 2.19 µM (inactive) | 1.78 µM (inactive) | 2.18 µM (inactive) | 0.292 µM (active) | 2.3 µM (inactive) | 1.8 µM (inactive) | 1.59 µM (inactive) |
| CCCCSc1n/c(=C\c2ccc(N(C)C)cc2)c2nnnn12 | > 100 µM (inactive) | > 100 µM (inactive) | > 100 | > 100 µM (inactive) | > 100 µM (inactive) | > 100 µM (inactive) | > 100 µM (inactive) | > 100 µM (inactive) | > 100 µM (inactive) | > 100 µM (inactive) | > 100 µM (inactive) | > 100 µM (inactive) | > 100 µM (inactive) | > 100 µM (inactive) | > 100 µM (inactive) | > 100 µM (inactive) | > 100 µM (inactive) | > 100 µM (inactive) | > 100 µM (inactive) |
| CC1=NN(c2nc(N)nc(-c3cc4ccccc4oc3=N)n2)C(C)(C)C1 | 26.7 µM (inactive) | 17 µM (inactive) | 16.1 | 15.3 µM (inactive) | 18.9 µM (inactive) | 17.7 µM (inactive) | 20.6 µM (inactive) | 16.5 µM (inactive) | 20.6 µM (inactive) | 17.7 µM (inactive) | 24.9 µM (inactive) | 17.1 µM (inactive) | 18.2 µM (inactive) | 20 µM (inactive) | 32.7 µM (inactive) | 19.6 µM (inactive) | 16.1 µM (inactive) | 23.4 µM (inactive) | 16.2 µM (inactive) |
| Cc1ccc(S(=O)(=O)n2ccc(-c3ccc4ccn(S(=O)(=O)c5ccc(C)cc5)c4c3)c2)cc1 | > 100 µM (inactive) | > 100 µM (inactive) | > 100 | > 100 µM (inactive) | > 100 µM (inactive) | > 100 µM (inactive) | > 100 µM (inactive) | > 100 µM (inactive) | > 100 µM (inactive) | > 100 µM (inactive) | > 100 µM (inactive) | > 100 µM (inactive) | > 100 µM (inactive) | > 100 µM (inactive) | 41 µM (inactive) | > 100 µM (inactive) | > 100 µM (inactive) | > 100 µM (inactive) | > 100 µM (inactive) |
| Cc1ccc(C2SCC(=O)N2NC(=O)c2ccncc2)s1 (centres undefined) | > 100 µM (inactive) | > 100 µM (inactive) | > 100 | > 100 µM (inactive) | > 100 µM (inactive) | > 100 µM (inactive) | > 100 µM (inactive) | > 100 µM (inactive) | > 100 µM (inactive) | > 100 µM (inactive) | > 100 µM (inactive) | > 100 µM (inactive) | > 100 µM (inactive) | > 100 µM (inactive) | > 100 µM (inactive) | > 100 µM (inactive) | > 100 µM (inactive) | > 100 µM (inactive) | > 100 µM (inactive) |
| O=c1c2ccc(Cl)cc2oc2c(CSc3ccccc3)cccc12 | > 43 µM (inactive) | > 70 µM (inactive) | 28.4 | > 24 µM (inactive) | 15.3 µM (inactive) | 21.6 µM (inactive) | > 42.5 µM (inactive) | 31.7 µM (inactive) | > 32.5 µM (inactive) | > 40.8 µM (inactive) | > 62.8 µM (inactive) | > 39.5 µM (inactive) | > 43.9 µM (inactive) | > 49.1 µM (inactive) | > 45.5 µM (inactive) | 9.64 µM (inactive) | 61.7 µM (inactive) | > 55.3 µM (inactive) | > 41.4 µM (inactive) |
